Where a SMILES comes first, the peptide text is derived from it. [ ]: non-standard residue; d: D form. The star is where a group is joined. X1 = Cc1ccc(Nc2ncc3c(n2)N(C)C(=O)N(c2cc(C(=O)*)ccc2C)C3)cn1; Aib = CC(C)(N)C(=O)O
Legend:
Test in all cases: kinase selectivity profiling
Format in all cases: biochemical
Conditions in all cases: 10µM ATP, read-out: % inhibition (relative to DMSO)
[1] = molecular target: T1, FAK/PTK2 (Homo sapiens, UniProt Q05397)
T1 construct: purchased Reaction Biology Corp
Method: (§1) Full panel kinase profiling and kinase IC50 measurement were performed by using Reaction Biology Corp. (San Diego, USA).

[2] = molecular target: T2, CLK4 (Homo sapiens, UniProt Q9HAZ1)
T2 construct: purchased Reaction Biology Corp
Method: as §1

[3] = molecular target: T3, PAK1 (Homo sapiens, UniProt Q13153)
T3 construct: purchased Reaction Biology Corp
Method: as §1

[4] = molecular target: T4, CAMK1d (Homo sapiens, UniProt Q8IU85)
T4 construct: purchased Reaction Biology Corp
Method: as §1

[5] = molecular target: T5, MARK1 (Homo sapiens, UniProt Q9P0L2)
T5 construct: purchased Reaction Biology Corp
Method: as §1

[6] = molecular target: T6, HIPK2 (Homo sapiens, UniProt Q9H2X6)
T6 construct: purchased Reaction Biology Corp
Method: as §1

[7] = molecular target: T7, Aurora C (Homo sapiens, UniProt Q9UQB9)
T7 construct: purchased Reaction Biology Corp
Method: as §1

[8] = molecular target: T8, TYK1/LTK (Homo sapiens, UniProt P29376)
T8 construct: purchased Reaction Biology Corp
Method: as §1

[9] = molecular target: T9, HCK (Homo sapiens, UniProt P08631)
T9 construct: purchased Reaction Biology Corp
Method: as §1

[10] = molecular target: T10, DDR2 (Homo sapiens, UniProt Q16832)
T10 construct: purchased Reaction Biology Corp
Method: as §1

[11] = molecular target: T11, CDK8/cyclin C (Homo sapiens, UniProt P49336)
T11 construct: purchased Reaction Biology Corp
Method: as §1

[12] = molecular target: T12, PDGFRa (Homo sapiens, UniProt P16234)
T12 construct: purchased Reaction Biology Corp
Method: as §1

[13] = molecular target: T13, BRAF (Homo sapiens, UniProt P15056)
T13 construct: purchased Reaction Biology Corp
Method: as §1

[14] = molecular target: T14, STK25/YSK1 (Homo sapiens, UniProt O00506)
T14 construct: purchased Reaction Biology Corp
Method: as §1

[15] = molecular target: T15, EPHA7 (Homo sapiens, UniProt Q15375)
T15 construct: purchased Reaction Biology Corp
Method: as §1

[16] = molecular target: T16, MYO3b (Homo sapiens, UniProt Q8WXR4)
T16 construct: purchased Reaction Biology Corp
Method: as §1

[17] = molecular target: T17, CK1a1L (Homo sapiens, UniProt Q8N752)
T17 construct: purchased Reaction Biology Corp
Method: as §1

[18] = molecular target: T18, RIPK5 (Homo sapiens, UniProt Q6XUX3)
T18 construct: purchased Reaction Biology Corp
Method: as §1

[19] = molecular target: T19, p70S6K/RPS6KB1 (Homo sapiens, UniProt P23443)
T19 construct: purchased Reaction Biology Corp
Method: as §1

[20] = molecular target: T20, CK1g1 (Homo sapiens, UniProt Q9HCP0)
T20 construct: purchased Reaction Biology Corp
Method: as §1

[21] = molecular target: T21, TRKB (Homo sapiens, UniProt Q16620)
T21 construct: purchased Reaction Biology Corp
Method: as §1

[22] = molecular target: T22, ARK5/NUAK1 (Homo sapiens, UniProt O60285)
T22 construct: purchased Reaction Biology Corp
Method: as §1

[23] = molecular target: T23, c-MER (Homo sapiens, UniProt Q12866)
T23 construct: purchased Reaction Biology Corp
Method: as §1

[24] = molecular target: T24, TESK1 (Homo sapiens, UniProt Q15569)
T24 construct: purchased Reaction Biology Corp
Method: as §1

[25] = molecular target: T25, STK39/STLK3 (Homo sapiens, UniProt Q9UEW8)
T25 construct: purchased Reaction Biology Corp
Method: as §1

[26] = molecular target: T26, DYRK3 (Homo sapiens, UniProt O43781)
T26 construct: purchased Reaction Biology Corp
Method: as §1

[27] = molecular target: T27, EPHB1 (Homo sapiens, UniProt P54762)
T27 construct: purchased Reaction Biology Corp
Method: as §1

[28] = molecular target: T28, PBK/TOPK (Homo sapiens, UniProt Q96KB5)
T28 construct: purchased Reaction Biology Corp
Method: as §1

[29] = molecular target: T29, CK1d (Homo sapiens, UniProt P48730)
T29 construct: purchased Reaction Biology Corp
Method: as §1

[30] = molecular target: T30, LOK/STK10 (Homo sapiens, UniProt O94804)
T30 construct: purchased Reaction Biology Corp
Method: as §1

[31] = molecular target: T31, ZIPK/DAPK3 (Homo sapiens, UniProt O43293)
T31 construct: purchased Reaction Biology Corp
Method: as §1

[32] = molecular target: T32, ACK1 (Homo sapiens, UniProt Q07912)
T32 construct: purchased Reaction Biology Corp
Method: as §1

[33] = molecular target: T33, STK38L/NDR2 (Homo sapiens, UniProt Q9Y2H1)
T33 construct: purchased Reaction Biology Corp
Method: as §1

[34] = molecular target: T34, AKT1 (Homo sapiens, UniProt P31749)
T34 construct: purchased Reaction Biology Corp
Method: as §1

[35] = molecular target: T35, MEKK6 (Homo sapiens, UniProt O95382)
T35 construct: purchased Reaction Biology Corp
Method: as §1

[36] = molecular target: T36, EPHA1 (Homo sapiens, UniProt P21709)
T36 construct: purchased Reaction Biology Corp
Method: as §1

[37] = molecular target: T37, ERN1/IRE1 (Homo sapiens, UniProt O75460)
T37 construct: purchased Reaction Biology Corp
Method: as §1

[38] = molecular target: T38, PKCepsilon (Homo sapiens, UniProt Q02156)
T38 construct: purchased Reaction Biology Corp
Method: as §1

[39] = molecular target: T39, MRCKb/CDC42BPB (Homo sapiens, UniProt Q9Y5S2)
T39 construct: purchased Reaction Biology Corp
Method: as §1

[40] = molecular target: T40, CDK2/cyclin A (Homo sapiens, UniProt P24941)
T40 construct: purchased Reaction Biology Corp
Method: as §1

[41] = molecular target: T41, ZAP70 (Homo sapiens, UniProt P43403)
T41 construct: purchased Reaction Biology Corp
Method: as §1

[42] = molecular target: T42, ROS/ROS1 (Homo sapiens, UniProt P08922)
T42 construct: purchased Reaction Biology Corp
Method: as §1

[43] = molecular target: T43, GLK/MAP4K3 (Homo sapiens, UniProt Q8IVH8)
T43 construct: purchased Reaction Biology Corp
Method: as §1

T26 sequence (O43781 whole entry): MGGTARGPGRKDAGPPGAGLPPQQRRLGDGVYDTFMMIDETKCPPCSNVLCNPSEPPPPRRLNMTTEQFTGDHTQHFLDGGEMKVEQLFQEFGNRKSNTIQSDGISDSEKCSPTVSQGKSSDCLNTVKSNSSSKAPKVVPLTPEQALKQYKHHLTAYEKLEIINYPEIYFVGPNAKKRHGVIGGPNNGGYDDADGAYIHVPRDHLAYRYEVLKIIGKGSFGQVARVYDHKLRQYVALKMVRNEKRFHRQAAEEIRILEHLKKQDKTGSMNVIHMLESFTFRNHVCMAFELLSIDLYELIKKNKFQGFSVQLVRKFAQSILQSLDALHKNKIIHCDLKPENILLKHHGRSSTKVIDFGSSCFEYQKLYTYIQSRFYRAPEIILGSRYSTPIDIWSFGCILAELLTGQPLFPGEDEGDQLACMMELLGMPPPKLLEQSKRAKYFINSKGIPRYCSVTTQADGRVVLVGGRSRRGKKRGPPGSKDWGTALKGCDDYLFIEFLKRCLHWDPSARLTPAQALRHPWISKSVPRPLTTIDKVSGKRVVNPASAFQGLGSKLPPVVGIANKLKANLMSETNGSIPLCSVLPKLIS
T4 sequence (Q8IU85 whole entry): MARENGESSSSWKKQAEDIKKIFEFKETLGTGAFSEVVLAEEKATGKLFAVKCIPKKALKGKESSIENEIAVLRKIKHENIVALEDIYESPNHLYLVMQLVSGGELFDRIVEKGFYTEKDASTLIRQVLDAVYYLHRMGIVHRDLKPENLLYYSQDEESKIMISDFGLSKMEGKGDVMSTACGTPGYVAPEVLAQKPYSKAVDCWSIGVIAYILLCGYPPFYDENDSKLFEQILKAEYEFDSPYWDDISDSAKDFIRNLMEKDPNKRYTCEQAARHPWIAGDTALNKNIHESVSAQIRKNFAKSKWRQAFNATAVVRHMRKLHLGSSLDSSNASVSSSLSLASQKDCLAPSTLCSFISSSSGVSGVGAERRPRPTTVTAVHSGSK
T21 sequence (Q16620 32-822): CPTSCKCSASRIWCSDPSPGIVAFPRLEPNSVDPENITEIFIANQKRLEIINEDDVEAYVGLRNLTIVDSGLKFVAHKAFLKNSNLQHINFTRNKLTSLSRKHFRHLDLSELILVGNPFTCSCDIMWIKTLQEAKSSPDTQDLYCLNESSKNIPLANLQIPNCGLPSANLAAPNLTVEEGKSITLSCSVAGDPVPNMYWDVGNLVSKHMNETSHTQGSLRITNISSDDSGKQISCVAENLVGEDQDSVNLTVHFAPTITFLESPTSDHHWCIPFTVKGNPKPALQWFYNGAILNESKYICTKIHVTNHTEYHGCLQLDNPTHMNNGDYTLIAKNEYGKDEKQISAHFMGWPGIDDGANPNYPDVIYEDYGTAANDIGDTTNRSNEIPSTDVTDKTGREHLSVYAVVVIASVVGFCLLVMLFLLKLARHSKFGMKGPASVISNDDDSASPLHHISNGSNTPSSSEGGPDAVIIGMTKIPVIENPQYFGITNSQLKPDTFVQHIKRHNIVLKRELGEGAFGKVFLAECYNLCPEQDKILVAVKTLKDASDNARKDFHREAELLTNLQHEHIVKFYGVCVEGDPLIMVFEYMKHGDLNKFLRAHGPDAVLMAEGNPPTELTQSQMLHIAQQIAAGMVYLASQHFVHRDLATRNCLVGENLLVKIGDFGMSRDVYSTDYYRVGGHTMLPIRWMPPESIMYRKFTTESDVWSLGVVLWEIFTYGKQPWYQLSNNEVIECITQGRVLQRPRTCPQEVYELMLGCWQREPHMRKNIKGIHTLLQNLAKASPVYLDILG
T5 sequence (Q9P0L2 whole entry): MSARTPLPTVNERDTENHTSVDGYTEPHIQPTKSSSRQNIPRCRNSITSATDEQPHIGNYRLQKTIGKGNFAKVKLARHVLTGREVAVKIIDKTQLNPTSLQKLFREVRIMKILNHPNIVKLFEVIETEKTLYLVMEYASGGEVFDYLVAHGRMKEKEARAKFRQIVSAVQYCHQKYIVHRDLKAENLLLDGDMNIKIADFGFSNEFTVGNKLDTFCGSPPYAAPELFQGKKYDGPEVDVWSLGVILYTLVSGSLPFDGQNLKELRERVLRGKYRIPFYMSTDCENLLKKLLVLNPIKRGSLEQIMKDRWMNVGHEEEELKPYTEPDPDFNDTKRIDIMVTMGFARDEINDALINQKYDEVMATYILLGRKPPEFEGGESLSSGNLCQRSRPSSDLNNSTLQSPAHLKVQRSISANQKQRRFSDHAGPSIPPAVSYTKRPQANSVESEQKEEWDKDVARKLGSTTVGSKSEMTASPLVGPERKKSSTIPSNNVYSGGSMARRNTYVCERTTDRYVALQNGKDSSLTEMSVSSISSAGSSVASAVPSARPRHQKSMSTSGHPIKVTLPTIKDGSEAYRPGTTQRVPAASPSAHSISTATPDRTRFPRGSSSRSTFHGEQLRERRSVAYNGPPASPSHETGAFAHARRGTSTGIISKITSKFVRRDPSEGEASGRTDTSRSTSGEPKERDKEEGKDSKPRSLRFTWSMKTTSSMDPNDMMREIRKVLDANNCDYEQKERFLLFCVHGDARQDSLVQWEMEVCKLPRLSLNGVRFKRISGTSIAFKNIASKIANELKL
T37 sequence (O75460 19-977): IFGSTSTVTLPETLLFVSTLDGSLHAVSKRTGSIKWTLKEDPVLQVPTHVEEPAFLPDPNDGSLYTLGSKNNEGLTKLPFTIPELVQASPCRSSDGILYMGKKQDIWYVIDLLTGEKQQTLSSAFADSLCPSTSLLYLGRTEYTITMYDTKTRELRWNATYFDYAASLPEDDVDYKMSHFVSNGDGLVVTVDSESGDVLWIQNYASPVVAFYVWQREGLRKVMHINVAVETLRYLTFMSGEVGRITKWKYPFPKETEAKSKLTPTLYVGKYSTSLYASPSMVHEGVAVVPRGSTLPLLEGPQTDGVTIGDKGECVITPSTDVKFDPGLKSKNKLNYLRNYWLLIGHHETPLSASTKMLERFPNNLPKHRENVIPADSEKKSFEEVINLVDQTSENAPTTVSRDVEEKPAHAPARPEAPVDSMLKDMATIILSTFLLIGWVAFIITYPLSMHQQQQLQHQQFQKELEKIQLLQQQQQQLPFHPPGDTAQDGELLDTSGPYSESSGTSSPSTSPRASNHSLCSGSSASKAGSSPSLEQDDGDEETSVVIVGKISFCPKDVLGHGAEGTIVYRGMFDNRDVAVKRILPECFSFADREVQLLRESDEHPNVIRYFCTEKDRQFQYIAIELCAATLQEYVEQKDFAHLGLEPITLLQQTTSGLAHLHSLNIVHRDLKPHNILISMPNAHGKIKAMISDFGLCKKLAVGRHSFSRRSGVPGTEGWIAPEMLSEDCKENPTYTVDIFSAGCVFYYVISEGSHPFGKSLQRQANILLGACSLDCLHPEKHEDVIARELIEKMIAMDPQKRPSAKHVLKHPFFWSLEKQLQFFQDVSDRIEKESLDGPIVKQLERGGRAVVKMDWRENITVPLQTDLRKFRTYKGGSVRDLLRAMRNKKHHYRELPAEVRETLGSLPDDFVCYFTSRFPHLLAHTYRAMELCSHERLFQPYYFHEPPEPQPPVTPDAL
T2 sequence (Q9HAZ1 whole entry): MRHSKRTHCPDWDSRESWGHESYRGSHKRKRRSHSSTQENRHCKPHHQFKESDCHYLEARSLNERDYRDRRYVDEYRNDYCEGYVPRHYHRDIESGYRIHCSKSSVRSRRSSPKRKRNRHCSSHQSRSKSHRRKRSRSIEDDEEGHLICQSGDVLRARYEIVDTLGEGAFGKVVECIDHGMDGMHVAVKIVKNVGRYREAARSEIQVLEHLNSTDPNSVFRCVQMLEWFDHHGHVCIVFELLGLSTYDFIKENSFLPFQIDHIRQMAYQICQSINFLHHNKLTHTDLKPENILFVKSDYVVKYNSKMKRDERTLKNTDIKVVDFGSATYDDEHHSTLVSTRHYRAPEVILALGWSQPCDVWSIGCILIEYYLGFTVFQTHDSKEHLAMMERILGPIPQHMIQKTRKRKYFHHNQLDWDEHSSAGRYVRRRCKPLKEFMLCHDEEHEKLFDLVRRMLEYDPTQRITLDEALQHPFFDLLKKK
T7 sequence (Q9UQB9 whole entry): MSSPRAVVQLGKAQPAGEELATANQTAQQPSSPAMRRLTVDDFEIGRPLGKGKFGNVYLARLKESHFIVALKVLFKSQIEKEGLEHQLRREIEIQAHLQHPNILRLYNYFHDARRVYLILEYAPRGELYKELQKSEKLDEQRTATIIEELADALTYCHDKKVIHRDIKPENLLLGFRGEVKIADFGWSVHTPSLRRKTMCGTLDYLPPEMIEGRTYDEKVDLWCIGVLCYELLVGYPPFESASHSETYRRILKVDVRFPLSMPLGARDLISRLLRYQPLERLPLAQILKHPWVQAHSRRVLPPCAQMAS
T22 sequence (O60285 whole entry): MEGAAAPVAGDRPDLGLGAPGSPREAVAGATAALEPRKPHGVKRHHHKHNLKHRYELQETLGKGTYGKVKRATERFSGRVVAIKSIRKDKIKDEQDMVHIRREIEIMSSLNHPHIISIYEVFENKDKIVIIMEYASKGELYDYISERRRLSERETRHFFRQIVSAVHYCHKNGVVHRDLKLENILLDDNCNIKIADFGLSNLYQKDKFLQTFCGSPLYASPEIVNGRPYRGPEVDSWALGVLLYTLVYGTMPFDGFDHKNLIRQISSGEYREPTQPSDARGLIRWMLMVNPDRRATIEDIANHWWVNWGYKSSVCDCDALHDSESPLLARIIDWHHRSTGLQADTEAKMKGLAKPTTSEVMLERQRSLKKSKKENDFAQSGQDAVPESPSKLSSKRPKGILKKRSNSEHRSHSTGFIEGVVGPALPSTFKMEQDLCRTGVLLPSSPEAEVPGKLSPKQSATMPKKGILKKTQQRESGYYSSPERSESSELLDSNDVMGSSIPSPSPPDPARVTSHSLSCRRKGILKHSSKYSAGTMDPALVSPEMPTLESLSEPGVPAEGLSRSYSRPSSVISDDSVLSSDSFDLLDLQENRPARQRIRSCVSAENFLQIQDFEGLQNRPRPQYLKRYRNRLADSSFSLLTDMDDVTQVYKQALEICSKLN

Cc1ccc(Nc2ncc3c(n2)N(C)C(=O)N(c2cc(C(=O)N[C@H](C(=O)N4CCC[C@H]4C(=O)NC(C)(C)C(=O)N[C@@H](CC(C)C)C(=O)N(C)C)C(C)C)ccc2C)C3)cn1 [7a, (S)-N-(1-(((S)-1-(dimethylamino)-4-methyl-1-oxopentan-2-yl)amino)-2-methyl-1-oxopropan-2-yl)-1-((4-methyl-3-(1-methyl-7-((6-methylpyridin-3-yl)amino)-2-oxo-1,4-dihydropyrimido[4,5-d]pyrimidin-3(2H)-yl)benzoyl)-L-valyl)pyrrolidine-2-carboxamide] (X1-VP[Aib]L-NMe2)
inhibition at 1 µM [1]: 5%
inhibition at 1 µM [2]: 0%
inhibition at 1 µM [3]: 5%
inhibition at 1 µM [4]: 8%
inhibition at 1 µM [5]: 0%
inhibition at 1 µM [6]: 0%
inhibition at 1 µM [7]: 0%
inhibition at 1 µM [8]: 0%
inhibition at 1 µM [9]: 38%
inhibition at 1 µM [10]: 58%
inhibition at 1 µM [11]: 2%
inhibition at 1 µM [12]: 31%
inhibition at 1 µM [13]: 7%
inhibition at 1 µM [14]: 3%
inhibition at 1 µM [15]: 2%
inhibition at 1 µM [16]: 0%
inhibition at 1 µM [17]: 0%
inhibition at 1 µM [18]: 0%
inhibition at 1 µM [19]: 0%
inhibition at 1 µM [20]: 0%
inhibition at 1 µM [21]: 5%
inhibition at 1 µM [22]: 9%
inhibition at 1 µM [23]: 1%
inhibition at 1 µM [24]: 0%
inhibition at 1 µM [25]: 0%
inhibition at 1 µM [26]: 23%
inhibition at 1 µM [27]: 16%
inhibition at 1 µM [28]: 0%
inhibition at 1 µM [29]: 11%
inhibition at 1 µM [30]: 3%
inhibition at 1 µM [31]: 6%
inhibition at 1 µM [32]: 0%
inhibition at 1 µM [33]: 4%
inhibition at 1 µM [34]: 8%
inhibition at 1 µM [35]: 0%
inhibition at 1 µM [36]: 3%
inhibition at 1 µM [37]: 5%
inhibition at 1 µM [38]: 1%
inhibition at 1 µM [39]: 0%
inhibition at 1 µM [40]: 0%
inhibition at 1 µM [41]: 0%
inhibition at 1 µM [42]: 9%
inhibition at 1 µM [43]: 9%

From article PMC9067983, “Identification of highly selective type II kinase inhibitors with chiral peptidomimetic tails” (Journal of Enzyme Inhibition and Medicinal Chemistry, 2022)
